From patent US20220380801A1, “TRIPARTITE SYSTEMS FOR PROTEIN DIMERIZATION AND METHODS OF USE” (priority 2019, published 2022)

Assays:
[1] = tested on: HCV NS3/4A PR (S139A):PRSIM_23; test: HTRF complex formation with alternative HCV PR inhibitors; format: binding, Hepatitis C virus subtype 1a; details: simeprevir substituted with alternative inhibitor
Method: (§1) scFv and Tn3 PRSIM binding molecules that were selective for the HCV NS3/4A PR (S139A) were identified in homogeneous time-resolved fluorescence (HTRF®) assays run in parallel to measure binding in the presence and absence of simeprevir. HCV NS3/4A PR (S139A), and serial dilutions of purified PRSIM binding molecules, were prepared in assay buffer (PBS containing 0.4 M potassium fluoride and 0.1% BSA). Streptavidin cryptate (Cisbio) was pre-mixed with either anti-FLAG XL665 (to detect the Tn3 molecules) or anti-c-myc XL665 (to detect the scFv molecules) in assay buffer. For each assay 2.5 μl of sample titration was added to 2.5 μl HCV NS3/4A PR (S139A) and 2.5 μl of pre-mixed detection reagents. Either 2.5 μl simeprevir or 2.5 μl of a DMSO blank were also added to each well. […] Assay plates were incubated overnight at 4° C., prior to reading the time resolved fluorescence at 620 nm and 665 nm emission wavelengths using a PerkinElmer Envision plate reader. Data was analysed by calculating % Delta F values for each sample. Delta F was determined according to equation 1.
(§2) There are several small molecule inhibitors that are known to bind the HCV NS3/4A protease and have been approved for human use. A panel of such small molecules were assessed for their ability to induce complex formation between HCV NS3/4A PR (S139A) and PRSIM_23 or PRSIM_57. […]

[2] = tested on: HCV NS3/4A PR (S139A):PRSIM_57; test: as above; format: binding, Hepatitis C virus subtype 1a; details: simeprevir substituted with alternative inhibitor
Method: as §1, §2

[3] = tested on: HCT116 cells stably expressing the PRSIM-based kill switch; test: Kill switch cell viability (phase contrast); format: cell-based, human; details: 100 nM simeprevir, wt kill switch
Method: (§3) HCT116 and HT29 transduced cells were generated following the same protocol with exception of using McCoy's 5A medium+10% foetal bovine serum as growth medium, supplemented with 2 μg/ml puromycin for selection of transduced cells.
(§4) HEK293, HCT116 or HT29 cells stably expressing the PRSIM-based kill switch fusion protein (SEQ ID NO: 223) or HEK293 cells stably expressing the PRSIM kill switch S196A mutant fusion protein (SEQ ID NO: 230) were plated onto collagen-coated 96-well plates and 24 h later treated with 100 nM simeprevir. Phase contrast images were acquired at various timepoints using 10× or 20× objectives on an Incucyte Zoom (EssenBioscience).

[4] = tested on: HT29 cells stably expressing the PRSIM-based kill switch; test: Kill switch cell viability (phase contrast); format: cell-based, human; details: 100 nM simeprevir, wt kill switch
Method: as §3, §4

[5] = tested on: iPSC single-cell clones with B2M-targeted kill switch; test: Real-time cell analysis (RTCA) of kill switch activity in iPS cells; format: cell-based, human; details: 1 nM simeprevir
Description: A stable induced pluripotency stem cell (iPSC) line (a single clone (B-3/1F1) derived from the fibroblast cells of a healthy human donor from Research Specimen Collection Program of Astrazeneca) stably expressing the simeprevir-inducible kill switch was generated using CRISPR/Cas9 technology, using AAV-encoded DNA as template for targeted integration into the β2 microglobulin (B2M) locus.
The donor construct (FIG. 33A) encoding the PRSIM-based kill switch (SEQ ID 223) was synthesized and purchased from GenScript, Inc. and was subcloned into an AAV shuttle plasmid backbone. The donor construct was packaged into adeno-associated viral (AAV) particles; briefly, the donor plasmid was co-transfected with two helper plasmids, pAd5Helper and pR2C6, encoding adenoviral components essential for AAV replication and AAV2 replication (rep)/AAV6 capsid (cap) proteins respectively. After 72 hours, the cells were collected and were disrupted by freeze-thawing. The cell lysate was digested with Benzonase (100 U/ml) for 1 hour at 37° C. and were centrifugated. The vector-containing supernatant was collected and applied to Iodixanol gradient followed by ultracentrifugation. After ultracentrifugation, the vector containing solution was collected and washed with 20 mL PBS in a centrifugal concentrator tube for 3 times. Finally, the solution was concentrated to 1 mL. […]

## COc1ccc2c(O[C@@H]3C[C@H]4C(=O)N[C@]5(C(=O)NS(=O)(=O)C6CC6)C[C@H]5/C=C\CCCCN(C)C(=O)[C@@H]4C3)cc(-c3nc(C(C)C)cs3)nc2c1C [simeprevir]
[1]
  induction of complex formation: induction of complex formation was specific for simeprevir
[2]
  induction of complex formation: induction of complex formation was specific for simeprevir
[3]
  cell death: rapid cell death
[4]
  cell death: rapid cell death
[5]; clones encoding the kill switch
  cell proliferation index: dramatic reduction in cell proliferation index after 5 hours
[5]; parental iPSC cells
  cell proliferation index: continued to proliferate
